Laboratory results from patent publication US4861771A, “Carbamates of 6-chloro-7,8-dihydroxy-1-(4'-hydroxyphenyl)-2,3,4,5-tetrahydro-1H-3-benz azepine as prodrugs” (priority 1989, dated 1989).
Structures can show the parent of a compound that is named as a salt.

Columns and labels:
[1] = plasma fenoldopam levels in dogs; format: in vivo, female mongrel dogs
Source text: (§1) The renal blood flow of the compounds of Formula 1 was readily measured in female mongrel dogs which underwent chronic implantation of a renal flow probe and arterial Vascular-Acess-Port. Briefly, the dogs were anesthetizied and using standard asceptic techniques, a Transonic flow probe was placed around the left renal artery and the connector tunneled subcutaneously to the back of the dog. The Vascular-Access-Port was placed in the left femoral artery and the access portion tacked to the underlying muscle in the area of the paralumbar-fossa. The patency of the Vascular Access Port was maintained by weekly flushing of the catheter and locking with a 50% glucose 500 U/ml heparinized solution. Dogs were trained to lie quietly restrained on a board and the connector portion of the flow probe was exteriorized under local anesthesia and connected to a Transonic flowmeter. Renal blood flow was recorded continuously on a Gilson chart recorder. Mean arterial pressure was monitored directly from the Vascular-Access-Port using a 23 gauge butterfly. Mean arterial blood pressure and renal blood flow were recorded before and for 6 hr. after the oral or i.v. administration of the R-enantiomers of the parent compound (fenoldopam) and the prodrug of fenoldopam. At the end of the experiment, the flow probe connector was returned to its subcutaneous position and the skin incision closed with chromic gut and skin staples. The VAP was again flushed and a fresh heparin glucose lock established. Standard sterile procedures followed during the removal and replacement of the flow probe connector.
During the experiment post drug blood samples were withdrawn periodically in order to determine the plasma levels of the parent drug, i.e., fenoldopam plasma levels.

renal blood flow = renal blood flow in chronically instrumented (flow probe) dogs; format: in vivo, female mongrel dogs; details: oral
Source text: as §1
The effect was transient and renal blood flow had returned to control values within 60 minutes.

[2] = cited from earlier work

CCNC(=O)Oc1ccc([C@H]2CNCCc3c2cc(OC(=O)NCC)c(OC(=O)NCC)c3Cl)cc1 [Example 3, (R)-6-chloro-7,8-diethylcarbamoyl-(4'-ethylcarbamoylphenyl)-2,3,4,5-tetrahydro-1H-3-benzazepine hydrochloride]
duration of sustained increase in plasma fenoldopam ([1]; oral, dogs): 4 to 6 h | duration of sustained increase in renal blood flow (renal blood flow; dogs): 4 to 6 h

Oc1ccc([C@H]2CNCCc3c2cc(O)c(O)c3Cl)cc1 [R-6-chloro-7,8-dihydroxy-1-(4'-hydroxyphenyl)-2,3,4,5-tetrahydro-1H-3-benzazepine]
Tmax ([1]; dog, plasma, oral, 4 dogs, read-out: time of peak plasma fenoldopam level (converted)): 5 min | renal blood flow effect in words (renal blood flow; 4 dogs): transient | time for renal blood flow to return to control values (renal blood flow; 4 dogs): ≤ 60 min | increase in renal blood flow (renal blood flow; 4 dogs, significant increase): 80%

Oc1ccc(C2CNCCc3c2cc(O)c(O)c3Cl)cc1 (centres unmarked) [fenoldopam, 6-chloro-7,8-dihydroxy-1-(4-hydroxyphenyl) 2,3,4,5-tetrahdyro-1H-3-benzazepine]
initial peak plasma level ([2]; in vivo, po): initial high peak plasma level | bioavailability ([2]; oral): low | first pass metabolism ([2]; oral): high | half life ([2]; reportedly): short | half-life ([1]; dog, plasma, after oral administration of fenoldopam, dogs): 12 min
